Reference: patent publication US10590178B2 (priority 2014, dated 2020)

What was measured:
Met6-8MAP = assay: Serum antibody ELISA after immunization, plates coated with Met6-8MAP; type: in vivo; conditions: after first booster; serum diluted 1:200; alum adjuvant; OD 492 nm
Procedure: Sera antibody titers were analyzed by ELISA. For DC-based immunization, the control groups were mice given DCs alone, or given DPBS alone, for all three injections. […] Fbb-8MAP or Met6-8MAP was dissolved at 5 μg/ml in PBS (pH 7.4), and used to coat 96-well ELISA plates with duplicate, serial, 2-fold dilutions of samples of each immune serum and control serum. Each well was treated with secondary antibody (goat anti-mouse polyvalent Ig-HRP, Sigma) and substrate (o-phenylenediamine and H2O2). Optical density was measured at 492 nm.
Serum samples were collected 14 days after immunization, diluted 1:200, and tested by ELISA on plates coated with the applicable peptide-8MAP conjugate. […] However, the immune responses to the MAP conjugates were substantially weaker than those induced by peptide-pulsed DC immunization.

C. albicans = assay: Chimeric double peptide-pulsed DC vaccination versus single peptides and mixture, lethal Candida challenge in mice (survival, kidney CFUs); conditions: for kidney CFUs: compared to non-immune mice / other vaccines
Procedure: Different groups of dendritic cells (DCs) were pulsed in vitro with Fba peptide, Met6 peptide, Fba-Met6 chimeric double peptide, or a mixture of the two peptides Fba and Met6. Briefly, DCs in culture were pulsed with the peptide antigen (1 μM) on day 6. On day 7, PGE2 (10^−7 M) was added along with LPS (2 μg/ml, Sigma) for 24 h. On day 9, antigen-pulsed DCs were washed extensively and 5×10^5 cells in 200 μl DPBS were injected into mice i.p. with complete Freund's adjuvant as the priming dose. The mice were boosted i.p. at day 14 with fresh antigen-pulsed DCs and adjuvant. The mice were again boosted i.p. at day 28 with fresh antigen-pulsed DCs, but the final boost used no adjuvant.
Two weeks after the second boost, immunized and control mice were both infected i.v. with a lethal dose of live C. albicans yeast cells (5×10^5 in 0.1 ml of DPBS), prepared as described above. Passively immunized mice (see below) also received the same challenge dose. Protection was evaluated by monitoring animal survival for 50-60 days. The mice were monitored for the development of a moribund state: defined as being listless, disinterested in food or water, and nonreactive to finger probing. Once a mouse was deemed moribund, it was sacrificed and its kidneys were homogenized in DPBS and plated onto a nutrient agar to determine the number of colony forming units of yeast (CFUs).

For “PRIGGQRELKKITE (Met6 peptide) [14-mer peptide from C. albicans cell wall protein Met6]”, the “antibody response compared to negative control mice (DPBS or adjuvant only)” value (Met6-8MAP) was 4-5 fold.
For “YGKDVKDLFDYAQEKKPRIGGQRELKKITE [Fba-KK-Met6]”, the “kidney CFUs” value (C. albicans; listed as Fba-Met6 chimeric double peptide vaccine) was “only one mouse in that group exhibited any detectable kidney CFUs”, the “kidney CFUs” value (C. albicans; listed as Fba-Met6 conjugate) was “much lower CFUs in kidneys” and the “survival rate / protection” value (C. albicans; up to 60 days (end of experiment)) was 100%.
